Assay results published in US20090192308A1, “1,5-DIHYDRO-2H-PYRROL-2-ONE TRICYCLIC DERIVATIVES HAVING ANTI-INFECTIVE ACTIVITY” (CPC BIOTECH S. r.l., priority 2008, published 2009).
≈ marks a conversion by molar mass, not a printed value. Entries after “also recorded” stand apart in the source; their conditions may differ.

Columns and labels:
[1] = test system: Acinetobacter baumannii MDR; experiment: agar spot / disk diffusion plate method; format: cell-based; settings: spot 10 μl, inoculum 10^8 CFU/ml, (Io) and (Ir) 100 mM, average of three points
Description: (§1) The antimicrobial activity of the substances (Ii), (Il), (Im), (In), (Io), (Ip), (Iq), (Ir), (Is) was evaluated towards 11 clinically isolated Gram-negative and Gram-positive bacterial strains, mostly multi-antibiotic resistant (MDR), and towards two types of yeast of the genus Candida.
(§2) A plate method was used (agar spot method or disk diffusion assay—spot quantity 10 μl, bacterial inoculum 10^8 CFU/ml and DMSO negative control): the (Io) and (Ir) concentration used was 100 mM. The antimicrobial activity was evaluated by measuring the diameter of the microbial growth inhibition halo expressed in millimetres, the reported values being the average of three experimental points.

Candida albicans = experiment: agar spot / disk diffusion plate method; format: cell-based; settings: spot 10 μl, inoculum 10^8 CFU/ml, (Io) and (Ir) 100 mM, average of three points
Description: as §1, §2

Candida parapsilosis = experiment: agar spot / disk diffusion plate method; format: cell-based; settings: spot 10 μl, inoculum 10^8 CFU/ml, (Io) and (Ir) 100 mM, average of three points
Description: as §1, §2

Escherichia coli = experiment: agar spot / disk diffusion plate method; format: cell-based; settings: spot 10 μl, inoculum 10^8 CFU/ml, (Io) and (Ir) 100 mM, average of three points
Description: as §1, §2

[2] = test system: Pseudomonas aeruginosa MDR; experiment: agar spot / disk diffusion plate method; format: cell-based; settings: spot 10 μl, inoculum 10^8 CFU/ml, (Io) and (Ir) 100 mM, average of three points
Description: as §1, §2

Salmonella spp. = experiment: agar spot / disk diffusion plate method; format: cell-based; settings: spot 10 μl, inoculum 10^8 CFU/ml, (Io) and (Ir) 100 mM, average of three points
Description: as §1, §2

[3] = test system: Staphylococcus aureus MRSA; experiment: agar spot / disk diffusion plate method; format: cell-based; settings: spot 10 μl, inoculum 10^8 CFU/ml, (Io) and (Ir) 100 mM, average of three points
Description: as §1, §2

[4] = test system: Staphylococcus haemolyticus MDR; experiment: agar spot / disk diffusion plate method; format: cell-based; settings: spot 10 μl, inoculum 10^8 CFU/ml, (Io) and (Ir) 100 mM, average of three points
Description: as §1, §2

[5] = compared with taurine and hypotaurine; cited from earlier work
[6] = in vivo biological studies, cited from earlier work
[7] = test system: 11 clinically isolated Gram-negative and Gram-positive bacterial strains, mostly MDR, and two types of yeast of the genus Candida; experiment: antimicrobial activity towards clinical isolates and yeasts (overall); format: cell-based; settings: pathogens resistant to β-lactam antibiotics or multi-drug resistant, and yeasts
Description: as §1, §2

[8] = test system: Enterococcus faecalis MDR; experiment: agar spot / disk diffusion plate method; format: cell-based; settings: spot 10 μl, inoculum 10^8 CFU/ml, (Io) and (Ir) 100 mM, average of three points
Description: as §1, §2

Enterococcus faecium MDR = experiment: agar spot / disk diffusion plate method; format: cell-based; settings: spot 10 μl, inoculum 10^8 CFU/ml, (Io) and (Ir) 100 mM, average of three points
Description: as §1, §2

Klebsiella oxytoca = experiment: agar spot / disk diffusion plate method; format: cell-based; settings: spot 10 μl, inoculum 10^8 CFU/ml, (Io) and (Ir) 100 mM, average of three points
Description: as §1, §2

Klebsiella pneumonite = experiment: agar spot / disk diffusion plate method; format: cell-based; settings: spot 10 μl, inoculum 10^8 CFU/ml, (Io) and (Ir) 100 mM, average of three points
Description: as §1, §2

Serratia marcescens = experiment: agar spot / disk diffusion plate method; format: cell-based; settings: spot 10 μl, inoculum 10^8 CFU/ml, (Io) and (Ir) 100 mM, average of three points
Description: as §1, §2

[9] = test system: methicillin-resistant Staphylococcus aureus strain (MRSA); experiment: MIC by microdilutions in broth; format: cell-based
Description: The minimum inhibitory concentration (MIC) of the substances (Io) and (Ir) towards the methicillin-resistant Staphylococcus aureus strain (MRSA) was then evaluated by the method of microdilutions in broth: it should be noted that Staphylococcus aureus (MRSA) is one of the main multi-resistant bacteria causing serious problems in hospitals. The measured MICs were 6.25 mmol/l and 1.56 mmol/l for (Io) and (Ir) respectively.

O=C1C2=C(SCCN2)C2CSCCN12 (stereo not drawn) [Ia, 3,4,7,8,10,10a-hexahydro-2H,5H-pyrrolo[2,1-c:3,4-b′]bis[1,4]thiazin-5-one, reference compound]
diameter of the microbial growth inhibition halo [1]: 4 millimetres
diameter of the microbial growth inhibition halo (Candida albicans): 6 millimetres
diameter of the microbial growth inhibition halo (Candida parapsilosis): 5 millimetres
diameter of the microbial growth inhibition halo (Escherichia coli): <2 millimetres
diameter of the microbial growth inhibition halo [2]: <2 millimetres
diameter of the microbial growth inhibition halo (Salmonella spp.): 3 millimetres
diameter of the microbial growth inhibition halo [3]: 4 millimetres
diameter of the microbial growth inhibition halo [4]: <2 millimetres
antioxidant activity (in words) [5]: strong antioxidant activity
antioxidant properties in vivo (in words) [6]: considerable antioxidant properties
toxicity in vivo (in words) ([6]; high doses): total non-toxicity even at high doses

CN1CCSC2=C1C(=O)N1CCSCC21 (stereo not drawn) [Ii]
antibiotic activity (in words) [7]: have shown antibiotic activity

CCN1CCSC2=C1C(=O)N1CCSCC21 (stereo not drawn) [Il]
antibiotic activity (in words) [7]: have shown antibiotic activity

CCCN1CCSC2=C1C(=O)N1CCSCC21 (stereo not drawn) [Im]
antibiotic activity (in words) [7]: have shown antibiotic activity

CC(C)N1CCSC2=C1C(=O)N1CCSCC21 (stereo not drawn) [In]
antibiotic activity (in words) [7]: have shown antibiotic activity

CC(C)=CCN1CCSC2=C1C(=O)N1CCSCC21 (stereo not drawn) [Io]
diameter of the microbial growth inhibition halo [1]: 11 millimetres
diameter of the microbial growth inhibition halo (Candida albicans): 10 millimetres
diameter of the microbial growth inhibition halo (Candida parapsilosis): 8 millimetres
diameter of the microbial growth inhibition halo [8]: 9 millimetres
diameter of the microbial growth inhibition halo (Enterococcus faecium MDR): 8 millimetres
diameter of the microbial growth inhibition halo (Escherichia coli): 12 millimetres
diameter of the microbial growth inhibition halo (Klebsiella oxytoca): 8.6 millimetres
diameter of the microbial growth inhibition halo (Klebsiella pneumonite): 10 millimetres
diameter of the microbial growth inhibition halo [2]: 11 millimetres
diameter of the microbial growth inhibition halo (Salmonella spp.): 10 millimetres
diameter of the microbial growth inhibition halo (Serratia marcescens): 7 millimetres
diameter of the microbial growth inhibition halo [3]: 11.4 millimetres
diameter of the microbial growth inhibition halo [4]: 13 millimetres
minimum inhibitory concentration (MIC) [9]: 6.25 mM (≈ 1850 µg/mL)
antibiotic activity (in words) [7]: have shown antibiotic activity

O=C1C2=C(SCCN2Cc2ccccc2)C2CSCCN12 (stereo not drawn) [Ip]
antibiotic activity (in words) [7]: have shown antibiotic activity

O=C1C2=C(SCCN2CCc2ccccc2)C2CSCCN12 (stereo not drawn) [Iq]
antibiotic activity (in words) [7]: have shown antibiotic activity

CC(C)=CCC/C(C)=C/CN1CCSC2=C1C(=O)N1CCSCC21 (stereo not drawn) [Ir]
diameter of the microbial growth inhibition halo [1]: 13 millimetres
diameter of the microbial growth inhibition halo (Candida albicans): 13 millimetres
diameter of the microbial growth inhibition halo (Candida parapsilosis): 9.8 millimetres
diameter of the microbial growth inhibition halo [8]: 13.7 millimetres
diameter of the microbial growth inhibition halo (Enterococcus faecium MDR): 14.3 millimetres
diameter of the microbial growth inhibition halo (Escherichia coli): 12 millimetres
diameter of the microbial growth inhibition halo (Klebsiella oxytoca): 9.8 millimetres
diameter of the microbial growth inhibition halo (Klebsiella pneumonite): 11.5 millimetres
diameter of the microbial growth inhibition halo [2]: 12 millimetres
diameter of the microbial growth inhibition halo (Salmonella spp.): 11 millimetres
diameter of the microbial growth inhibition halo (Serratia marcescens): 11 millimetres
diameter of the microbial growth inhibition halo [3]: 18.6 millimetres
diameter of the microbial growth inhibition halo [4]: 15 millimetres
minimum inhibitory concentration (MIC) [9]: 1.56 mM (≈ 569 µg/mL)
antibiotic activity (in words) [7]: have shown antibiotic activity; also recorded: best activity characteristics for the widest spectrum; also recorded: excellent wide spectrum antibiotic activity

O=C1C2=C(SCCN2c2ccc(-c3ccccc3)cc2)C2CSCCN12 (stereo not drawn) [Is]
antibiotic activity (in words) [7]: have shown antibiotic activity
